Columns and labels:
Type in all cases: cell-based
[1] = Human tumor cell line growth assay (SRB); details: human, EKVX cells (NSCLC), read-out: LC50
[2] = test system: EKVX; assay: Human tumor cell line growth assay (SRB); details: Homo sapiens, NSCLC, 48 h
[3] = Human tumor cell line growth assay (SRB); details: human, HOP-62 cells (NSCLC), HOP-62, 48 h, read-out: LC50
[4] = test system: HOP-62; assay: Human tumor cell line growth assay (SRB); details: Homo sapiens; NSCLC, HOP-62, 48 h
[5] = Human tumor cell line growth assay (SRB); details: human, NCI-H460 cells (NSCLC), NCI-H460, 48 h, read-out: LC50
[6] = test system: NCI-H460; assay: Human tumor cell line growth assay (SRB); details: Homo sapiens; NSCLC, NCI-H460, 48 h
[7] = Human tumor cell line growth assay (SRB); details: human, NCI-H522 cells (NSCLC), NCI-H522, 48 h
[8] = test system: NCI-H522; assay: Human tumor cell line growth assay (SRB); details: Homo sapiens; NSCLC, NCI-H522, 48 h
[9] = Human tumor cell line growth assay (SRB); details: human, HCC-2998 cells (colon), HCC-2998, 48 h, read-out: LC50
[10] = test system: HCC-2998; assay: Human tumor cell line growth assay (SRB); details: Homo sapiens; Colon, HCC-2998, 48 h
[11] = Human tumor cell line growth assay (SRB); details: human, HCT-116 cells (colon), HCT-116, 48 h, read-out: LC50
[12] = test system: HCT-116; assay: Human tumor cell line growth assay (SRB); details: Homo sapiens; Colon, HCT-116, 48 h
[13] = Human tumor cell line growth assay (SRB); details: human, SNB-19 cells (CNS), SNB-19, 48 h, read-out: LC50
[14] = test system: SNB-19; assay: Human tumor cell line growth assay (SRB); details: Homo sapiens; CNS, SNB-19, 48 h
[15] = Human tumor cell line growth assay (SRB); details: human, LOX IMVI cells (melanoma), read-out: LC50
[16] = test system: LOX IMVI; assay: Human tumor cell line growth assay (SRB); details: Homo sapiens, Melanoma, 48 h
[17] = Human tumor cell line growth assay (SRB); details: human, M14 cells (melanoma), M14, 48 h, read-out: LC50
[18] = test system: M14; assay: Human tumor cell line growth assay (SRB); details: Homo sapiens; Melanoma, M14, 48 h
[19] = Human tumor cell line growth assay (SRB); details: human, MDA-MB-435 cells (melanoma), MDA-MB-435, 48 h, read-out: LC50
[20] = test system: MDA-MB-435; assay: Human tumor cell line growth assay (SRB); details: Homo sapiens; Melanoma, MDA-MB-435, 48 h
[21] = test system: SK-OV-3; assay: Human tumor cell line growth assay (SRB); details: Ovarian, SK-OV-3, 48 h; for CC50: read-out: LC50 (the source's name)
[22] = test system: ACHN; assay: Human tumor cell line growth assay (SRB); details: Renal, 48 h; for CC50: read-out: LC50 (the source's name)
[23] = test system: UO-31; assay: Human tumor cell line growth assay (SRB); details: Renal, UO-31, 48 h; for CC50: read-out: LC50 (the source's name)
[24] = test system: MCF7; assay: Human tumor cell line growth assay (SRB); details: Breast, MCF7, 48 h; for CC50: read-out: LC50 (the source's name)
[25] = test system: HS 578T; assay: Human tumor cell line growth assay (SRB); details: Breast, 48 h; for CC50: read-out: LC50 (the source's name)
[26] = Human tumor cell line growth assay (SRB); details: human, RPMI-8226 cells (leukemia), RPMI-8226, 48 h, read-out: LC50
[27] = Human tumor cell line growth assay (SRB), summary over the panel; details: human, human tumor cell line panel (most cell lines of the panel); for most cell lines of the panel; read-out: LC50

| SMILES | GI50 [2] [µM] | CC50 at 48 h [3] [µM] | GI50 [4] [µM] | GI50 [6] [µM] | LC50 at 48 h [7] [µM] | GI50 [8] [µM] | GI50 [10] [µM] | GI50 [12] [µM] | CC50 at 48 h [13] [µM] | GI50 [14] [µM] | CC50 at 48 h [17] [µM] | GI50 [18] [µM] | GI50 [20] [µM] | GI50 [21] [µM] | CC50 [21] [µM] | GI50 [22] [µM] | GI50 [23] [µM] | CC50 [23] [µM] | GI50 [24] [µM] | CC50 [24] [µM] | further results |
| --- | --- | --- | --- | --- | --- | --- | --- | --- | --- | --- | --- | --- | --- | --- | --- | --- | --- | --- | --- | --- | --- |
| Cc1cc2nc3c4ccccc4n(CCN(C)C)c3nc2cc1C [B220, 2-(2,3-dimethyl-6H-indolo [2,3-b]quinoxalin-6-yl)-N,N-dimethylethanamine, reference compound] | 2.23 | > 100 | 1.11 | 0.709 | > 100 | 0.673 | 1.47 | 0.488 | 68.6 | 2.33 | 75.1 | 1.51 | 1.61 | 3.1 | > 100 | 0.555 | 0.726 | 91.3 | 1.41 | 34.8 | CC50 at 48 h [1]: 83.9 µM; CC50 at 48 h [5]: 37.3 µM; CC50 at 48 h [9]: 15.7 µM; CC50 at 48 h [11]: 44.5 µM; CC50 at 48 h [15]: 18.9 µM; GI50 [16]: 0.748 µM; CC50 at 48 h [19]: 7.49 µM; CC50 [22]: 42.2 µM; GI50 [25]: 1.57 µM; CC50 [25]: 67.4 µM |
| COc1ccc2c(c1)c1nc3cc(C)c(C)cc3nc1n2CCN(C)C [JBA-094, 2-(9-methoxy-2,3-dimethyl-6H-indolo[2,3-b]quinoxalin-6-yl)-N,N-dimethylethanamine] | 1.28 | > 100 | 1.19 | 0.388 | > 100 | 0.515 | 1.08 | 0.312 | 6.34 | 0.719 | 5.89 | 1.12 | 1.11 | 1.5 | 7.17 | 0.358 | 0.273 | 4.93 | 0.332 | 4.79 | CC50 at 48 h [1]: 6.8 µM; CC50 at 48 h [5]: 4.98 µM; CC50 at 48 h [9]: 6.32 µM; CC50 at 48 h [11]: 6.59 µM; CC50 at 48 h [15]: 6.07 µM; GI50 [16]: 0.336 µM; CC50 at 48 h [19]: 6.03 µM; CC50 [22]: 3.96 µM; GI50 [25]: 1.93 µM; CC50 [25]: 78.7 µM |
| Cc1cc2nc3c4cc([N+](=O)[O-])ccc4n(CCN(C)C)c3nc2cc1C [JBA-185, 2-(2,3-dimethyl-9-nitro-6H-indolo[2,3-b]quinoxalin-6-yl)-N,N-dimethylethanamine] | 0.477 | > 100 | 0.507 | 0.35 | > 100 | 0.595 | 0.756 | 0.355 | > 100 | 0.493 | 7.28 | 0.499 | 0.541 | 0.704 | > 100 | 0.316 | 0.187 | 21.2 | 0.356 | > 100 | CC50 at 48 h [26]: > 100 µM; CC50 at 48 h [1]: > 100 µM; CC50 at 48 h [5]: 26.7 µM; CC50 at 48 h [9]: 6.53 µM; CC50 at 48 h [11]: 94.2 µM; CC50 at 48 h [19]: 4.5 µM; CC50 [22]: 2.46 µM; GI50 [25]: 1.57 µM; CC50 [25]: > 100 µM; CC50 at 48 h [27]: > 100 µM |
| Cc1cc2nc3c4cc(N)ccc4n(CCN(C)C)c3nc2cc1C [JBD-136, 6-(2-(dimethylamino)ethyl)-2,3-dimethyl-6H-indolo [2,3-b]quinoxalin-9-amine] | 1.99 | > 100 | 1.14 | 0.434 | > 100 | 0.771 | 1.02 | 0.369 | > 100 | 0.767 | 6.43 | 1.12 | 1.05 | 2.23 | > 100 | 0.367 | 0.332 | 55.3 | 0.675 | 57.5 | CC50 at 48 h [26]: 95.2 µM; CC50 at 48 h [1]: > 100 µM; CC50 at 48 h [5]: 36.6 µM; CC50 at 48 h [9]: 21.9 µM; CC50 at 48 h [11]: 51.4 µM; CC50 at 48 h [15]: 21.8 µM; GI50 [16]: 0.494 µM; CC50 at 48 h [19]: 5.6 µM; CC50 [22]: 57.3 µM; GI50 [25]: 2.12 µM; CC50 [25]: > 100 µM |
| Cc1cc2nc3c4cc(O)ccc4n(CCN(C)C)c3nc2cc1C [JBD-139, 6-(2-(dimethylamino)ethyl)-2,3-dimethyl-6H-indolo [2,3-b]quinoxalin-9-ol] | 1.1 | > 100 | 0.569 | 0.348 | > 100 | 0.39 | 0.75 | 0.326 | > 100 | 0.423 | 5.15 | 0.378 | 0.529 | 1.16 | > 100 | 0.307 | 1.39 | 4.18 | 0.351 | > 100 | GI50 [16]: 0.338 µM; GI50 [25]: 1.4 µM; CC50 [25]: > 100 µM |

— US20230312578A1, “6H-INDOLO[2,3-B]QUINOXALINE DERIVATIVES USEFUL IN THERAPY” (Vironova Medical AB, priority 2020, published 2023)
